In patent US11401255B2, “Small molecule activators of Parkin enzyme function” (Mayo Foundation for Medical Education and Research, priority 2016, dated 2022):
Read-outs that look alike come from different tables or passages of the source.

Columns and labels:
Parkin = Parkin (Homo sapiens (Human), UniProt O60260); test: Primary HCI assay of EGFP-Parkin translocation to mitochondria; format: cell-based; conditions: for activity in EGFP-Parkin translocation to damaged mitochondria: 1 μM; for EC50: primary assay screen, Parkin translocation to mitochondria
Chain of Parkin (O60260 whole entry): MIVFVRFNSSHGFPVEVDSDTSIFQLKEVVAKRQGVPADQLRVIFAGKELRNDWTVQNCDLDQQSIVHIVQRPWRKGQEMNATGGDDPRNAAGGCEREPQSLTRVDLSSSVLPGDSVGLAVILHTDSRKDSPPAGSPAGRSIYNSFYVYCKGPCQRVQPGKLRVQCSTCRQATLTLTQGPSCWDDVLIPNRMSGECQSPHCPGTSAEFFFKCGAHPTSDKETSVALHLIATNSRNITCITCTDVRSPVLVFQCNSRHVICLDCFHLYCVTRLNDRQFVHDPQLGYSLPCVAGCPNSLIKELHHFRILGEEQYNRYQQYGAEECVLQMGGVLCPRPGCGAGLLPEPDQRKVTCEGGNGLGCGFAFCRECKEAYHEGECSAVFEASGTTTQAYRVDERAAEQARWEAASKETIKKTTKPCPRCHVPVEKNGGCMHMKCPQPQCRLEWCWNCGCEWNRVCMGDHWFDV
Procedure: GFP-Parkin is localized throughout the cell in unstressed cells but translocates to mitochondria when the mitochondrial membrane potential is compromised and Parkin is activated. After automated image acquisition of fixed cells, regions of interest of each cell were defined with the analysis software. […] To quantify the relocalization of GFP-Parkin to mitochondria, the ratio of the GFP intensity in the cytoplasm and the nucleus was calculated. Under non-stressed condition, this ratio is about 1. FIG. 1B is a bar graph showing the results of the assay with a Z factor (Z′) of 0.5-0.8, which indicates its robustness and usefulness as a screening assay. Validation of the assay has been performed by using PINK1 siRNA.
FIGS. 2A-2C show a primary HCI assay with CCCP titration. FIG. 2A is a graphic description of the primary HCI assay of EGFP-Parkin translocation. HeLa cells stably expressing GFP-Parkin were seeded with 1350 cells per well in 384-well plates (25 μL per well). Cells were allowed to attach overnight before drug was added 2× concentrated in a volume of 25 μL in triplicates. After 2 h, 50 μL of a 2× low-dose CCCP (yielding a final concentration of 3.5 μM CCCP) was added to all wells that contained test compounds and for the negative control. For positive control wells, CCCP was added in a final concentration of 10 μM. After 2 h incubation with CCCP, cells were fixed and labeled with Hoechst for at least 1 h before cells were imaged. […] Values were being normalized to negative and positive control values and plotted as % activity. Z′ was calculated for quality control. Positive controls were indicated in green, negative control wells in red. Drugs that lead to more than 50% activity are considered positive (blue).
Functional testing of compounds was performed using an established primary HCI assay for Parkin translocation, which correlates well with enzymatic activation (Fiesel et al., J. Cell Science (2014) 127:3488-3504; Fiesel et al., Human Mutation (2015) 36:774-786). In brief, 1400 HeLa cells stably expressing EGFP-Parkin were seeded into optical 384-well plates (Greiner BioOne) in 25 μL media and allowed to adhere for 40 h. Compounds 1, 2, 3, 4, and 31 were added to the plate as 2× concentrated stocks. Control wells were treated with equal volume of DMSO in media. After 2 h, unless otherwise stated, CCCP was added as 2× concentrated stock with a final assay concentration of 10 μM for PC wells and 3.5 μM for test and NC wells. This low dose of CCCP was experimentally determined by a dose response curve of CCCP to result in no Parkin translocation (FIG. 13). After another 2 h, cells were fixed in 4% paraformaldehyde for 10 min and stained with Hoechst 33342 (1:5000, Invitrogen) before plates were imaged and analyzed.
Image acquisition was performed on a BD Pathway 855 with the Attovision V1.6 software (BD Biosciences). Wells were imaged with a 20× objective using a 2×2 montage with laser autofocus. EGFP exposure time was 0.0175 sec, Hoechst 0.0015 sec. Raw images were not processed and directly analyzed using a build-in ‘RING—2 output’ algorithm. Values were exported and normalized using JMP 11 software and transferred to GraphPad Prism 7 for quality control, graphing and curve fitting for DRCs with a variable slope using four parameters. […] Values were normalized to both PC and NC values from 24 wells each per plate and the Z′ score was calculated. Plates with Z′<0.5 were repeated.

[1] = Caco-2 A-B permeability assay; format: in vitro ADME; conditions: human
Procedure: (§1) Caco-2 cells were cultivated in 75 cm^2 flasks to 80-90% of confluence according to the ATCC and Millipore recommendations (Millipore protocol note PC1060EN00P) in a humidified atmosphere at 37° C. and 5% CO2. Cells were detached with Trypsin/EDTA solution and re-suspended in the cell culture medium to a final concentration of 2×10^5 cells/mL. 500 μL of the cell suspension was added to each well of an HTS 24-multiwell insert system and 35 mL of prewarmed complete medium was added to the feeder tray. Caco-2 cells were incubated in the multiwell insert system for 10 days before the transport experiments. The medium in the filter plate and feeder tray was changed every other day. After 10 days of cell growth, the integrity of the monolayer was verified by measuring the transepithelial electrical resistance (TEER) for every well using the Millicell-ERS system ohm meter. […] The 24-well insert plate was removed from its feeder plate and placed in a new sterile 24-well transport analysis plate. The medium was aspirated and inserts washed with PBS.
(§2) To determine the rate of drug transport in apical (A) to basolateral (B) direction, 300 μL of the test compound solution in buffer (HBSS, 5.6 mM glucose, 10 mM HEPES, pH=7.4) was added into the filter wells and 1000 μL of the same buffer was added to wells in the transport analysis plate. The plates were incubated for 90 min. at 37° C. with shaking at 50 rpm. 75 μL aliquots were taken from the apical and basolateral compartment for LC-MS/MS analysis. All samples for LC-MS/MS analysis were extracted by acetonitrile (×2 volume) followed by protein sedimentation by centrifuging at 10000 rpm for 10 minutes. Supernatants were analyzed using the HPLC system coupled with a tandem mass spectrometer.
(§3) The apparent permeability (Papp) was calculated for the Caco-2 permeability assay using the following equation: Papp=(VA/((Area)×(Time))×([drug]acc/[drug]initial,d), where: […]

Caco-2 cells = test: Caco-2 A-B permeability assay; format: in vitro ADME; conditions: A-B, 90 min, pH=7.4
Procedure: as §1, §2, §3

CYP 1A2 = CYP 1A2 (Homo sapiens (Human), UniProt P05177); test: in vitro
Chain of CYP 1A2 (P05177 whole entry): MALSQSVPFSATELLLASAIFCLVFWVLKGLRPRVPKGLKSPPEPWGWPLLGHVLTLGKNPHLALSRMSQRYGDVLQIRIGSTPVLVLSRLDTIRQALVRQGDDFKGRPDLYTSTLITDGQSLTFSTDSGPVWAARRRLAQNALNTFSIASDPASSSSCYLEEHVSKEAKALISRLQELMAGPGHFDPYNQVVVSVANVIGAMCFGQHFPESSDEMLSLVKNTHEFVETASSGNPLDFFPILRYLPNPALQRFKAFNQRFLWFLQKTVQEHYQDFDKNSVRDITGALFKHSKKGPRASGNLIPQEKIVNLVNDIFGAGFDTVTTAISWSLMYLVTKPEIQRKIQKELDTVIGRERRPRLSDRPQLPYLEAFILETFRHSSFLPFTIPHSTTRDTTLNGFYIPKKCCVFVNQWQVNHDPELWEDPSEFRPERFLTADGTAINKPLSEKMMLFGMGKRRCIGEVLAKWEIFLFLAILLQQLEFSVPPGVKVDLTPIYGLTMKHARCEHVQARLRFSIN
Procedure: (§4) CYP450 inhibition profiling provides valuable information regarding any possible drug-drug interactions for a test compound.
(§5) All experiments were performed using P450-Glo™ Assay Systems (Promega) in accordance with the manufacturer's protocols. The P450-Glo™ Assays provide a luminescent readout-based method for measuring cytochrome P450 activity. A conventional cytochrome P450 reaction was performed by incubating the cytochrome P450 and a luminogenic cytochrome P450 substrate. The substrates in the P450-Glo™ assays are derivatives of beetle luciferin. The derivatives themselves are not substrates for luciferase but are converted by cytochrome P450s to luciferin, which in turn reacts with luciferase to produce light. The amount of light produced was directly proportional to cytochrome P450 activity. All test points were performed in quadruplicates. Control membranes (without CYPs) represented the Negative control (baseline).
(§6) The following reference compounds were used to assess CYP inhibition: […]

CYP 2C19 = CYP 2C19 (Homo sapiens (Human), UniProt P33261); test: in vitro
Chain of CYP 2C19 (P33261 whole entry): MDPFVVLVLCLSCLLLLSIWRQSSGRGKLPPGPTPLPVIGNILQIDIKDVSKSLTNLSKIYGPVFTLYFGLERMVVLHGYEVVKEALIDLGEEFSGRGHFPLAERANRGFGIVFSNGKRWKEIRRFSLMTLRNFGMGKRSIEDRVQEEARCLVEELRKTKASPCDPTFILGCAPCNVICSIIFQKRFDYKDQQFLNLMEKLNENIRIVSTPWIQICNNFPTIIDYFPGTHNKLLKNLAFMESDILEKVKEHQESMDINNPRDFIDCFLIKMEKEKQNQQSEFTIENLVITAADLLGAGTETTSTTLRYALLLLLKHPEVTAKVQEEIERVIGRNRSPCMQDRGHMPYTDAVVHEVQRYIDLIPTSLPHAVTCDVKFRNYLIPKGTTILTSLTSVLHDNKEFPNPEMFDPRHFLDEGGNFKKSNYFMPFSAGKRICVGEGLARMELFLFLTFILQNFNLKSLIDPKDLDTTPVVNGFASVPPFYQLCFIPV
Procedure: as §4, §5, §6

CYP 3A4 = CYP 3A4 (Homo sapiens (Human), UniProt P08684); test: in vitro; conditions: % Mean
Chain of CYP 3A4 (P08684 whole entry): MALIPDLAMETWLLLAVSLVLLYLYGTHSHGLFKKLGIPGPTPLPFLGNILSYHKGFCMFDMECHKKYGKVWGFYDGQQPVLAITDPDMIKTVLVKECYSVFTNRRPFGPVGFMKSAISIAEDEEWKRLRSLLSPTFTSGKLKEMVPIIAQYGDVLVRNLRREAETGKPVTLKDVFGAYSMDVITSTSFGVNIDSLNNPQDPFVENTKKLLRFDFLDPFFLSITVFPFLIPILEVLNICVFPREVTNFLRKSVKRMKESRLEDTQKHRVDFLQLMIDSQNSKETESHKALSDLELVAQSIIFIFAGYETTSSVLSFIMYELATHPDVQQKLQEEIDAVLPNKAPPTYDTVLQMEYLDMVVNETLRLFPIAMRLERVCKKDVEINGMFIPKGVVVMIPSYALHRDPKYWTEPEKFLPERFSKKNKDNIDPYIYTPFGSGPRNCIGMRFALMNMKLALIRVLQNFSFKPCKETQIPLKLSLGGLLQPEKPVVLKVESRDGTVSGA
Procedure: as §4, §5, §6

[2] = Caco-2, pH 7.4, A-B, read-out: Permeability (individual replicates 1, 2)
[3] = Caco-2, pH 7.4, A-B, read-out: Permeability Mean

Row | Structure (SMILES) | activity in EGFP-Parkin translocation to damaged mitochondria (Parkin) | EC50 (Parkin) [nM] | Papp at 90 min [1, 2] [×10⁻⁶ cm/s] | Papp at 90 min [1, 3] [×10⁻⁶ cm/s] | Permeability (individual replicates 1, 2) (Caco-2 cells) | inhibition at 10 µM (CYP 1A2; % (individual replicates)) [%] | inhibition at 10 µM (CYP 1A2; % Mean) [%] | inhibition at 10 µM (CYP 2C19; % Mean) [%] | inhibition at 10 µM (CYP 3A4) [%] | inhibition at 10 µM (CYP 2C19; % (individual replicates)) [%] | Papp at 90 min ([1]; Caco-2, A-B, pH=7.4, read-out: Permeability (individual replicates 1, 2)) [×10⁻⁶ cm/s]
1 | CC(C)c1nccn1CC(=O)Nc1ccc(-c2ccccc2)cc1 [Compound 2] | showed activity | 549 | 17.9 | 18.2 | 18.5 10^−6 cm/s | 49.3 | 40.4 | -9.5 | -14.3 | – | –
2 | Cc1nc2c(c(N3CCCN(Cc4ccccc4)CC3)n1)CCCC2 [Compound 31] | showed activity | 990 | 52.8 | 49 | 45.2 10^−6 cm/s | – | -0.7 | 16.2 | -16.1 | 14 | –
3 | CC(C)(C)Sc1ccc(NC(=O)Cn2ccnc2)cc1 [Compound 3] | showed activity | 405 | 39.5 | 40.6 | 41.7 10^−6 cm/s | 98.6 | 97.6 | 92.5 | 88.3 | 97.4 | –
4 | O=C(Cn1ccnc1-c1ccccn1)Nc1ccc(-c2ccccc2)cc1 [Compound 4] | showed activity | 164 | 14.6 | 15.3 | – | – | 5.6 | -10.3 | 1.4 | – | 15.9
5 | O=C(Cn1cnc2c1CCCC2)Nc1ccc(-c2ccccc2)cc1 [Compound 1] | showed activity | 371 | 8.3 | 10.2 | 12.1 10^−6 cm/s | 73.2 | 69 | 9.4 | -24.4 | – | –
